{"source": "patent US20230295115A1", "about": "“SUBSTITUTED ISOQUINOLINYLMETHYL AMIDES, ANALOGUES THEREOF, AND METHODS USING SAME” (priority 2020, published 2023)", "system": "HBV rcDNA", "experiment": "HepDE19 assay with bDNA quantitation of HBV rcDNA", "type": "cell-based, hepatitis B virus (HBV)", "procedure": "HepDE19 assay with bDNA quantitation of HBV rcDNA:\nHepDE19 (50,000 cells/well) were plated in 96-well collagen-coated tissue-culture treated microtiter plates in DMEM/F12 medium supplemented with 10% fetal bovine serum, 1% penicillin-streptomycin and 1 μg/mL tetracycline and incubated in a humidified incubator at 37° C. and 5% CO2 overnight. Next day, the cells were switched to fresh medium without tetracycline and incubated for 4 hours at 37° C. and 5% CO2. […] The final DMSO concentration in the assay was 0.5%. The plates were incubated for 7 days in a humidified incubator at 37° C. and 5% CO2. Following a 7 day-incubation, the level of rcDNA present in the inhibitor-treated wells was measured using a Quantigene 2.0 bDNA assay kit (Affymetrix, Santa Clara, CA) with HBV specific custom probe set and manufacturers instructions. Concurrently, the effect of compounds on cell viability was assessed using replicate plates, plated at a density of 5,000 cells/well and incubated for 4 days, to determine the ATP content as a measure of cell viability using the cell-titer glo reagent (CTG; Promega Corporation, Madison, WI) as per manufacturer's instructions.", "key": {"[1]": {"details": "HepDE19 cells, 7 day incubation, rcDNA measured by Quantigene 2.0 bDNA assay, top concentration 25 μM; read-out: DE-19bDNA EC50"}, "[2]": {"details": "Hepatitis B virus, HepDE19, 168 h, HepDE19 cells, 7 day incubation, rcDNA measured by Quantigene 2.0 bDNA assay, top concentration 25 μM; read-out: DE-19bDNA EC50"}}, "note": "Read-outs that look alike come from different tables or passages of the source."}
{"smiles": "CC(c1c[nH]c(=O)c2cc(F)c(F)cc12)N(C)C(=O)c1cc2cc(F)c(F)cc2[nH]1", "note": "(single isomer, unassigned) [Compound 16, N-(1-(6,7-Difluoro-1-oxo-1,2-dihydroisoquinolin-4-yl)ethyl)-5,6-difluoro-N-methyl-1H-indole-2-carboxamide]", "values": [{"measurement": "EC50", "setting": "[1]", "result": 10, "unit": "nM"}]}
{"smiles": "C[C@H](c1c[nH]c(=O)c2ccccc12)N(C)C(=O)c1ccc(Cl)c(F)c1", "note": "[Compound 148, (R)-4-Chloro-3-fluoro-N-methyl-N-(1-(1-oxo-1,2-dihydroisoquinolin-4-yl)ethyl)benzamide]", "values": [{"measurement": "EC50", "setting": "[2]", "result": 270, "unit": "nM"}]}
{"smiles": "CC(c1c[nH]c(=O)c2cc(F)c(F)cc12)N(C)C(=O)c1cc2cc(F)ccn2c1", "note": "(single isomer, unassigned) [Compound 108, N-(1-(6,7-Difluoro-1-oxo-1,2-dihydroisoquinolin-4-yl)ethyl)-7-fluoro-N-methylindolizine-2-carboxamide]", "values": [{"measurement": "EC50", "setting": "[1]", "result": 20, "unit": "nM"}]}
{"smiles": "COc1ncc(C(C)N(C)C(=O)c2cc3cc(F)c(F)cc3[nH]2)c2cc(F)c(F)cc12", "note": "(single isomer, unassigned) [Compound 170, N-(1-(6,7-Difluoro-1-methoxyisoquinolin-4-yl)ethyl)-5,6-difluoro-N-methyl-1H-indole-2-carboxamide]", "values": [{"measurement": "EC50", "setting": "[1]", "result": 5040, "unit": "nM"}]}
{"smiles": "CC(c1cn(C)c(=O)c2cc(F)c(F)cc12)N(C)C(=O)c1ccc(Br)cc1", "note": "(single isomer, unassigned) [Compound 168, 4-bromo-N-(1-(6,7-difluoro-2-methyl-1-oxo-1,2-dihydroisoquinolin-4-y1)ethyl)-N-methylbenzamide]", "values": [{"measurement": "EC50", "setting": "[1]", "result": 30, "unit": "nM"}]}
{"smiles": "CC(c1c[nH]c(=O)c2c(F)c(F)ccc12)N(C)C(=O)C1Cc2cc(F)ccc2N1", "note": "(centres unmarked) [Compound 74, N-(1-(7,8-Difluoro-1-oxo-1,2-dihydroisoquinolin-4-yl)ethyl)-5-fluoro-N-methylindoline-2-carboxamide]", "values": [{"measurement": "EC50", "setting": "[1]", "result": 260, "unit": "nM"}]}
{"smiles": "CC(c1cn(C)c(=O)c2cc(F)c(F)cc12)N(C)C(=O)c1ccc(Br)c(F)c1", "note": "(single isomer, unassigned) [Compound 161, 4-bromo-N-(1-(6,7-difluoro-2-methyl-1-oxo-1,2-dihydroisoquinolin-4-yl)ethyl)-3-fluoro-N-methylbenzamide]", "values": [{"measurement": "EC50", "setting": "[1]", "result": 3090, "unit": "nM"}]}
{"smiles": "C[C@H](c1c[nH]c(=O)c2ccccc12)N(C)C(=O)c1cc2c(F)cc(F)cc2[nH]1", "note": "[Compound 158, (R)-4,6-Difluoro-N-methyl-N-(1-(1-oxo-1,2-dihydroisoquinolin-4-yl)ethyl)-1H-indole-2-carboxamide]", "values": [{"measurement": "EC50", "setting": "[2]", "result": 130, "unit": "nM"}]}
{"smiles": "C[C@H](c1c[nH]c(=O)c2ccccc12)N(C)C(=O)c1cc2cc(F)ccn2c1", "note": "[Compound 153, (R)-7-Fluoro-N-methyl-N-(1-(1-oxo-1,2-dihydroisoquinolin-4-yl)ethyl)indolizine-2-carboxamide]", "values": [{"measurement": "EC50", "setting": "[2]", "result": 350, "unit": "nM"}]}
{"smiles": "CC(c1c[nH]c(=O)c2cc(F)c(F)cc12)N(C)C(=O)c1ccc(C(F)(F)F)cc1", "note": "(single isomer, unassigned) [Compound 129, N-(1-(6,7-Difluoro-1-oxo-1,2-dihydroisoquinolin-4-yl)ethyl)-N-methyl-4-(trifluoromethyl) benzamide]", "values": [{"measurement": "EC50", "setting": "[1]", "result": 6460, "unit": "nM"}]}
{"smiles": "CC(C)CN(C(=O)c1ccc(C(F)(F)F)c(F)c1)C(C)c1c[nH]c(=O)c2c(F)c(F)ccc12", "note": "(racemic) [Compound 118, N-(1-(7,8-Difluoro-1-oxo-1,2-dihydroisoquinolin-4-yl)ethyl)-3-fluoro-N-isobutyl-4-(trifluoromethyl)benzamide]", "values": [{"measurement": "EC50", "setting": "[2]", "result": 2230, "unit": "nM"}]}
{"smiles": "CC(c1c[nH]c(=O)c2cc(F)c(F)cc12)N(C)C(=O)c1cc2ccc(F)cc2[nH]1", "note": "(single isomer, unassigned) [Compound 11, N-(1-(6,7-Difluoro-1-oxo-1,2-dihydroisoquinolin-4-yl)ethyl)-6-fluoro-N-methyl-1H-indole-2-carboxamide]", "values": [{"measurement": "EC50", "setting": "[1]", "result": 1200, "unit": "nM"}]}
{"smiles": "CC(c1c[nH]c(=O)c2c(F)c(F)ccc12)N(C)C(=O)c1cc2c(Cl)cccn2c1", "note": "(single isomer, unassigned) [Compound 92, 8-Chloro-N-(1-(7,8-difluoro-1-oxo-1,2-dihydroisoquinolin-4-yl)ethyl)-N-methylindolizine-2-carboxamide]", "values": [{"measurement": "EC50", "setting": "[1]", "result": 2700, "unit": "nM"}]}
{"smiles": "CC(c1c[nH]c(=O)c2cc(F)c(F)cc12)N(C)C(=O)c1[nH]c2ccccc2c1Cl", "note": "(racemic) [Compound 60, 3-Chloro-N-(1-(6,7-difluoro-1-oxo-1,2-dihydroisoquinolin-4-yl)ethyl)-N-methyl-1H-indole-2-carboxamide]", "values": [{"measurement": "EC50", "setting": "[2]", "result": 800, "unit": "nM"}]}
{"smiles": "CC(c1c[nH]c(=O)c2cc(F)c(F)cc12)N(C)C(=O)c1ccc(Cl)c(F)c1", "note": "(single isomer, unassigned) [Compound 122, 4-Chloro-N-(1-(6,7-difluoro-1-oxo-1,2-dihydroisoquinolin-4-yl)ethyl)-3-fluoro-N-methylbenzamide]", "values": [{"measurement": "EC50", "setting": "[1]", "result": 40, "unit": "nM"}]}
{"smiles": "CC(c1cn(C)c(=O)c2cc(F)c(F)cc12)N(C)C(=O)c1ccc(Br)cc1", "note": "(single isomer, unassigned) [Compound 167, 4-bromo-N-(1-(6,7-difluoro-2-methyl-1-oxo-1,2-dihydroisoquinolin-4-yl)ethyl)-N-methylbenzamide]", "values": [{"measurement": "EC50", "setting": "[1]", "result": 2320, "unit": "nM"}]}
{"smiles": "CC(c1c[nH]c(=O)c2cc(F)c(F)cc12)N(C)C(=O)c1cn2ccccc2n1", "note": "(single isomer, unassigned) [Compound 45, N-(1-(6,7-Difluoro-1-oxo-1,2-dihydroisoquinolin-4-yl)ethyl)-N-methylimidazo[1,2-a]pyridine-2-carboxamide]", "values": [{"measurement": "EC50", "setting": "[1]", "result": 2500, "unit": "nM"}]}
{"smiles": "CC(c1c[nH]c(=O)c2c(F)c(F)ccc12)N(C)C(=O)c1cc2ccccn2c1", "note": "(single isomer, unassigned) [Compound 71, N-(1-(7,8-Difluoro-1-oxo-1,2-dihydroisoquinolin-4-yl)ethyl)-N-methylindolizine-2-carboxamide]", "values": [{"measurement": "EC50", "setting": "read-out: DE-19bDNA EC50; HepDE19 cells, 7 day incubation, rcDNA measured by Quantigene 2.0 bDNA assay, top concentration 25 μM", "result": 6500, "unit": "nM"}]}
{"smiles": "COc1ncc(C(C)N(C)C(=O)c2ccc(Br)c(F)c2)c2cc(F)c(F)cc12", "note": "(single isomer, unassigned) [Compound 177, 4-Bromo-N-(1-(6,7-difluoro-1-methoxyisoquinolin-4-yl)ethyl)-3-fluoro-N-methylbenzamide]", "values": [{"measurement": "EC50", "setting": "[1]", "result": 20200, "unit": "nM"}]}
{"smiles": "C[C@H](c1c[nH]c(=O)c2ccccc12)N(C)C(=O)c1ccc(Br)c(F)c1", "note": "[Compound 150, (R)-4-Bromo-3-fluoro-N-methyl-N-(1-(1-oxo-1,2-dihydroisoquinolin-4-yl)ethyl)benzamide]", "values": [{"measurement": "EC50", "setting": "[2]", "result": 510, "unit": "nM"}]}
{"smiles": "CC(c1c[nH]c(=O)c2cc(F)c(F)cc12)N(C)C(=O)c1ccc2c(ccn2C)c1", "note": "(single isomer, unassigned) [Compound 139, N-(1-(6,7-difluoro-1-oxo-1,2-dihydroisoquinolin-4-yl)ethyl)-N,1-dimethyl-1H-indole-5-carboxamide]", "values": [{"measurement": "EC50", "setting": "[1]", "result": "> 25000", "unit": "nM"}]}
{"smiles": "CC(c1c[nH]c(=O)c2cc(F)c(F)cc12)N(C)C(=O)c1cccc(C(F)F)c1", "note": "(single isomer, unassigned) [Compound 126, N-(1-(6,7-Difluoro-1-oxo-1,2-dihydroisoquinolin-4-yl)ethyl)-3-(difluoromethyl)-N-methylbenzamide]", "values": [{"measurement": "EC50", "setting": "[1]", "result": 100, "unit": "nM"}]}
{"smiles": "CC(c1c[nH]c(=O)c2cc(F)c(F)cc12)N(C)C(=O)c1cc2cccc(F)c2[nH]1", "note": "(single isomer, unassigned) [Compound 13, N-(1-(6,7-Difluoro-1-oxo-1,2-dihydroisoquinolin-4-yl)ethyl)-7-fluoro-N-methyl-1H-indole-2-carboxamide]", "values": [{"measurement": "EC50", "setting": "[1]", "result": 3400, "unit": "nM"}]}
{"smiles": "CC(c1c[nH]c(=O)c2cc(F)c(F)cc12)N(C)C(=O)c1ccc(C(F)(F)F)c(F)c1", "note": "(single isomer, unassigned) [Compound 120, N-(1-(6,7-Difluoro-1-oxo-1,2-dihydroisoquinolin-4-yl)ethyl)-3-fluoro-N-methyl-4-(trifluoromethyl) benzamide]", "values": [{"measurement": "EC50", "setting": "[1]", "result": 20, "unit": "nM"}]}
{"smiles": "CC(c1c[nH]c(=O)c2cc(F)c(F)cc12)N(C)C(=O)C1Nc2ccccc2C1(C)C", "note": "(centres unmarked) [Compound 112, N-(1-(6,7-Difluoro-1-oxo-1,2-dihydroisoquinolin-4-yl)ethyl)-N,3,3-trimethylindoline-2-carboxamide]", "values": [{"measurement": "EC50", "setting": "[2]", "result": 21000, "unit": "nM"}]}
{"smiles": "CC(c1c[nH]c(=O)c2c(F)c(F)ccc12)N(C)C(=O)c1cc2c(F)cccn2c1", "note": "(single isomer, unassigned) [Compound 82, N-(1-(7,8-Difluoro-1-oxo-1,2-dihydroisoquinolin-4-yl)ethyl)-8-fluoro-N-methylindolizine-2-carboxamide]", "values": [{"measurement": "EC50", "setting": "[1]", "result": 70, "unit": "nM"}]}
{"smiles": "C[C@H](c1c[nH]c(=O)c2ccccc12)N(C)C(=O)c1ccc(F)c(Cl)c1", "note": "[Compound 149, (R)-3-Chloro-4-fluoro-N-methyl-N-(1-(1-oxo-1,2-dihydroisoquinolin-4-yl)ethyl)benzamide]", "values": [{"measurement": "EC50", "setting": "[2]", "result": 680, "unit": "nM"}]}
{"smiles": "CC(c1c[nH]c(=O)c2cc(F)c(F)cc12)N(C)C(=O)c1cc2ccccc2n1C", "note": "(single isomer, unassigned) [Compound 43, N-(1-(6,7-Difluoro-1-oxo-1,2-dihydroisoquinolin-4-yl)ethyl)-N,1-dimethyl-1H-indole-2-carboxamide]", "values": [{"measurement": "EC50", "setting": "[1]", "result": 4300, "unit": "nM"}]}
{"smiles": "CC(c1c[nH]c(=O)c2c(F)c(F)ccc12)N(C)C(=O)C1Cc2c(F)cc(F)cc2N1", "note": "(centres unmarked) [Compound 67, N-(1-(7,8-Difluoro-1-oxo-1,2-dihydroisoquinolin-4-yl)ethyl)-4,6-difluoro-N-methylindoline-2-carboxamide]", "values": [{"measurement": "EC50", "setting": "[1]", "result": 3100, "unit": "nM"}]}
